Experimental findings from patent US9040663B2, “Melanocortin receptor-specific peptides” (AstraZeneca AB, priority 2009, dated 2015) are described below.

Assay [1] addresses T1, hMC4-R (Homo sapiens (Human), UniProt P32245). In words: Competitive inhibition binding assay using [I125]-NDP-α-MSH, hMC4-R. The note with it: membranes of HEK-293 cells expressing recombinant hMC4-R, read-out: MC4-R Ki. As to the method: 7.1 Competitive Inhibition Assay using [I^125]-NDP-α-MSH.
A competitive inhibition binding assay was performed for exemplified peptides according to the invention using membrane homogenates prepared from HEK-293 cells that express recombinant hMC4-R, hMC3-R, or hMC5-R, and from B-16 mouse melanoma cells (containing endogenous MC1-R). In some instances, HEK-293 cells that express recombinant hMC1-R were employed. Assays were performed in 96 well GF/B Millipore multiscreen filtration plates (MAFB NOB10) pre-coated with 0.5% bovine serum albumin (Fraction V). Membrane homogenates were incubated with 0.2 nM (for hMC4-R) 0.4 nM (for MC3-R and MC5-R) or 0.1 nM (for mouse B16 MC1-R or hMC1-R) [I^125]-NDP-α-MSH (Perkin Elmer) and increasing concentrations of test peptides of the present invention in buffer containing 25 mM HEPES buffer (pH 7.5) with 100 mM NaCl, 2 mM CaCl2, 2 mM MgCl2, 0.3 mM 1,10-phenanthroline, and 0.2% bovine serum albumin. After incubation for 60 minutes at 37° C., the assay mixture was filtered and the membranes washed three times with ice-cold buffer. Filters were dried and counted in a gamma counter for bound radioactivity. […] Maximal specific binding (100%) was defined as the difference in radioactivity (cpm) bound to cell membranes in the absence and presence of 1 μM NDP-α-MSH. […] Each assay was conducted in triplicate and the actual mean values are described, with results less than 0% reported as 0%. Ki values for test peptides of the present invention were determined using Graph-Pad Prism® curve-fitting software.

Assay [2] addresses T1, hMC4-R. In words: High and low density hMC4-R functional assay (cAMP, HEK293-T-REx-MC4-R cells). Conditions: for Emax: NDP-α-MSH = 100%, read-out: Intrinsic Activity (%). It counts as cell-based. The procedure:
The cells were then dispensed into 96-well plates (BD 353916) in 198 μL (about 5×10^4) cells/well and incubated for 10 minutes at 37° C. The compound to be tested was diluted with DMSO to a final concentration of 1 mM. […] 120 μL of the 1 mM compound stock was pipetted in the second column on the plate. […] All assay samples were run in duplicate (i.e. each sample was in two low dox and two high dox plates, respectively). The plates were gently shaken and incubated for 15 minutes at 37° C.

Setting [3] is: 0.1 ng/mL Doxycycline (low density hMC4-R system).
Where [4] appears, read: 10 ng/mL Doxycycline (high density hMC4-R system).

Like-named read-outs stand apart in the source and are kept apart here. Positions of bridges follow the written chain, without caps; N, C: chain ends. Non-standard residues stand in square brackets, D forms with d. Residues, ends and D or L forms follow the SMILES beside them. dPhe(4-CN) = N#Cc1ccc(C[C@@H](N)C(=O)O)cc1

T1 sequence (P32245 whole entry): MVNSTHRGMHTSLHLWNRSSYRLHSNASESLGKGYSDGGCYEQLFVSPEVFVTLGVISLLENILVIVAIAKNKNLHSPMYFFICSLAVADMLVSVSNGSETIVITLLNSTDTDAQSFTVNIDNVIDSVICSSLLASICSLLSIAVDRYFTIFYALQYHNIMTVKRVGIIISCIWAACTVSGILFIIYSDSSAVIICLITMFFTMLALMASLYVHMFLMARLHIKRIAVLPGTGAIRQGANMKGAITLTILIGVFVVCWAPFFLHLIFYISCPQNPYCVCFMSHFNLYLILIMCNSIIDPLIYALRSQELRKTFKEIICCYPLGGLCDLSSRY

A word on the Ki: it is a measure of affinity in units of concentration, obtained from inhibition or displacement. What is called EC50 is the concentration needed to bring the measured effect to its halfway point. The low end stands for higher potency in that assay, the high end for lower potency in that assay. Regarding `CC(=O)N[C@@H](CCCNC(=N)N)C(=O)N[C@H]1CCC(=O)NCCC[C@@H](C(N)=O)NC(=O)[C@H](Cc2c[nH]c3ccccc23)NC(=O)[C@H](CCCNC(=N)N)NC(=O)[C@@H](Cc2ccc(C#N)cc2)NC(=O)[C@H](C(C)C)NC1=O` [Example 42, Ac-Arg-cyclo(Glu-Val-D-Phe(4-CN)-Arg-Trp-Orn)-NH2], the inhibitory constant (Ki) in assay [1] stood at 6 nM. Besides, the Emax in assay [2] (setting [3]) worked out at 9%. In assay [2] (setting [4]), the EC50 came out at 0.5 nM and the Emax came out at 84%.
As to `CC(=O)N[C@H](CCCNC(=N)N)C(=O)N[C@H]1CCCNC(=O)CC[C@@H](C(N)=O)NC(=O)[C@H](Cc2c[nH]c3ccccc23)NC(=O)[C@H](CCCNC(=N)N)NC(=O)[C@@H](Cc2ccccc2Cl)NC(=O)[C@H](Cc2c[nH]cn2)NC1=O` [Example 50, Ac-D-Arg-cyclo(Orn-His-D-Phe(2-Cl)-Arg-Trp-Glu)-NH2], the Ki in assay [1] was 1 nM. Moreover, in assay [2] (setting [3]), the 50% effective concentration (EC50) stood at 0.21 nM and the Emax turned out to be 94%. In addition, in assay [2] (setting [4]), a half-maximal response (EC50) required 0.085 nM and the Emax amounted to 94%.
With `CC(=O)N[C@H](CCCNC(=N)N)C(=O)N[C@H]1CCCNC(=O)CC[C@@H](C(N)=O)NC(=O)[C@H](Cc2c[nH]c3ccccc23)NC(=O)[C@H](CCCNC(=N)N)NC(=O)[C@@H](Cc2ccc(F)c(F)c2)NC(=O)[C@H](Cc2c[nH]cn2)NC1=O` [Example 54, Ac-D-Arg-cyclo(Orn-His-D-Phe(3,4-diF)-Arg-Trp-Glu)-NH2], in assay [1], the inhibition constant Ki worked out at 0.25 nM. In assay [2] (setting [3]), the response was half-maximal at 0.075 nM (EC50) and the Emax amounted to 56%. Also, in assay [2] (setting [4]), a half-maximal effect (EC50) was put at 0.075 nM and the Emax worked out at 92%.
Take `CC(=O)N[C@@H](CCCNC(=N)N)C(=O)N[C@H]1CCC(=O)NCCC[C@@H](C(N)=O)NC(=O)[C@H](Cc2c[nH]c3ccccc23)NC(=O)[C@H](CCCNC(=N)N)NC(=O)[C@@H](Cc2ccccc2F)NC(=O)[C@H](CCC(N)=O)NC1=O` [Example 59, Ac-Arg-cyclo(Glu-Gln-D-Phe(2-F)-Arg-Trp-Orn)-NH2]: the Ki in assay [1] worked out at 7 nM. In assay [2] (setting [3]), the EC50 came out at 0.6 nM and the Emax turned out to be 90%. In addition, in assay [2] (setting [4]), a half-maximal effect (EC50) was put at 0.1 nM and the Emax was 98%.
As to `CC(=O)N[C@@H](CCCNC(=N)N)C(=O)N[C@H]1CCC(=O)NCCC[C@@H](C(N)=O)NC(=O)[C@H](Cc2c[nH]c3ccccc23)NC(=O)[C@H](CCCNC(=N)N)NC(=O)[C@@H](Cc2cccc(Cl)c2)NC(=O)[C@H](CN)NC1=O` [Example 61, Ac-Arg-cyclo(Glu-Dap-D-Phe(3-Cl)-Arg-Trp-Orn)-NH2], the inhibition constant Ki in assay [1] worked out at 4 nM. For the same compound, the Emax in assay [2] (setting [3]) was 6%. Also, in assay [2] (setting [4]), the midpoint of the response, the EC50, lay at 0.95 nM and the Emax turned out to be 89%.
Take `CC(=O)N[C@@H](CCCNC(=N)N)C(=O)N[C@H]1CCC(=O)NCCC[C@@H](C(N)=O)NC(=O)[C@H](Cc2c[nH]c3ccccc23)NC(=O)[C@H](CCCNC(=N)N)NC(=O)[C@@H](Cc2ccccc2Cl)NC(=O)[C@H](CN)NC1=O` [Example 62, Ac-Arg-cyclo(Glu-Dap-D-Phe(2-Cl)-Arg-Trp-Orn)-NH2]: in assay [1], the Ki is 9 nM. The EC50 was found to be 16 nM in assay [2] (setting [3]) and 0.47 nM in assay [2] (setting [4]). Besides, the Emax in assay [2] (setting [3]) amounted to 23%; in assay [2] (setting [4]) it was 84%.
Taken in the same sequence, the figures for `CC(=O)N[C@@H](CCCNC(=N)N)C(=O)N[C@H]1CCCNC(=O)CC[C@@H](C(N)=O)NC(=O)[C@H](Cc2c[nH]c3ccccc23)NC(=O)[C@H](CCCNC(=N)N)NC(=O)[C@@H](Cc2ccc(F)cc2)NC(=O)[C@H](CC(N)=O)NC1=O` [Example 70, Ac-Arg-cyclo(Orn-Asn-D-Phe(4-F)-Arg-Trp-Glu)-NH2] were 3 nM, 0.4 nM, 0.1 nM, 64% and 91%.
Taken in the same sequence, the figures for `CC(=O)N[C@@H](CCCNC(=N)N)C(=O)N[C@H]1CCCNC(=O)CC[C@@H](C(N)=O)NC(=O)[C@H](Cc2c[nH]c3ccccc23)NC(=O)[C@H](CCCNC(=N)N)NC(=O)[C@@H](Cc2cccc(C)c2)NC(=O)[C@H](CC(N)=O)NC1=O` [Example 72, Ac-Arg-cyclo(Orn-Asn-D-Phe(3-Me)-Arg-Trp-Glu)-NH2] were 4 nM, 3 nM, 0.35 nM, 11% and 84%.
In the case of `CC(=O)N[C@@H](CCCNC(=N)N)C(=O)N[C@H]1CCC(=O)NCCC[C@@H](C(N)=O)NC(=O)[C@H](Cc2c[nH]c3ccccc23)NC(=O)[C@H](CCCNC(=N)N)NC(=O)[C@@H](Cc2ccccc2C)NC(=O)[C@H](CC(N)=O)NC1=O` [Example 73, Ac-Arg-cyclo(Glu-Asn-D-Phe(2-Me)-Arg-Trp-Orn)-NH2], the inhibition constant (Ki) in assay [1] worked out at 4 nM. In addition, the Emax in assay [2] (setting [3]) was 86%; in assay [2] (setting [4]), 102%.
Take `CC(=O)N[C@@H](CCCNC(=N)N)C(=O)N[C@H]1CCCNC(=O)CC[C@@H](C(N)=O)NC(=O)[C@H](Cc2c[nH]c3ccccc23)NC(=O)[C@H](CCCNC(=N)N)NC(=O)[C@@H](Cc2cc(F)cc(F)c2)NC(=O)[C@H](CC(N)=O)NC1=O` [Example 77, Ac-Arg-cyclo(Orn-Asn-D-Phe(3,5-diF)-Arg-Trp-Glu)-NH2]: the Ki in assay [1] turned out to be 8 nM. Further, in assay [2] (setting [3]), the EC50 was determined as 3 nM and the Emax was found to be 34%. The Emax in assay [2] (setting [4]) turned out to be 80%.
`CC(=O)N[C@H](CCCNC(=N)N)C(=O)N[C@H]1CC(=O)NCCCC[C@@H](C(N)=O)NC(=O)[C@H](Cc2c[nH]c3ccccc23)NC(=O)[C@H](CCCNC(=N)N)NC(=O)[C@@H](Cc2ccc(F)c(F)c2)NC(=O)[C@H](CCC(N)=O)NC1=O` [Example 78, Ac-D-Arg-cyclo(Asp-Gln-D-Phe(3,4-diF)-Arg-Trp-Lys)-NH2]: the inhibition constant Ki in assay [1] stood at 8 nM. In assay [2] (setting [3]), a half-maximal response (EC50) required 2 nM and the Emax is 48%. In addition, in assay [2] (setting [4]), the EC50 is 0.2 nM and the Emax worked out at 89%.
On the same counts, the results for `CC(=O)N[C@H](CCCNC(=N)N)C(=O)N[C@H]1CC(=O)NCCCC[C@@H](C(N)=O)NC(=O)[C@H](Cc2c[nH]c3ccccc23)NC(=O)[C@H](CCCNC(=N)N)NC(=O)[C@@H](Cc2ccccc2F)NC(=O)[C@H](CCC(N)=O)NC1=O` [Example 82, Ac-D-Arg-cyclo(Asp-Gln-D-Phe(2-F)-Arg-Trp-Lys)-NH2] are 10 nM, 2 nM, 79%, 0.095 nM and 95%.
As for `CC(=O)N[C@H](CCCNC(=N)N)C(=O)N[C@H]1CC(=O)NCCCC[C@@H](C(N)=O)NC(=O)[C@H](Cc2c[nH]c3ccccc23)NC(=O)[C@H](CCCNC(=N)N)NC(=O)[C@@H](Cc2ccc(F)cc2)NC(=O)[C@H](CCC(N)=O)NC1=O` [Example 83, Ac-D-Arg-cyclo(Asp-Gln-D-Phe(4-F)-Arg-Trp-Lys)-NH2], in assay [1], the Ki was found to be 6 nM. Also, in assay [2] (setting [3]), the EC50 was determined as 0.75 nM and the Emax came out at 78%. Besides, in assay [2] (setting [4]), the midpoint of the response, the EC50, lay at 0.075 nM and the Emax amounted to 94%.
On the same counts, the results for `COc1cccc(C[C@H]2NC(=O)[C@H](CCN)NC(=O)[C@@H](NC(=O)[C@H](CCCNC(=N)N)NC(C)=O)CCC(=O)NCCC[C@@H](C(N)=O)NC(=O)[C@H](Cc3c[nH]c4ccccc34)NC(=O)[C@H](CCCNC(=N)N)NC2=O)c1` [Example 87, Ac-Arg-cyclo(Glu-Dab-D-Phe(3-OMe)-Arg-Trp-Orn)-NH2] are 3 nM, 1 nM, 64%, 0.065 nM and 100%.
Taken in the same sequence, the figures for `CC(=O)N[C@@H](CCCNC(=N)N)C(=O)N[C@H]1CCC(=O)NCCC[C@@H](C(N)=O)NC(=O)[C@H](Cc2c[nH]c3ccccc23)NC(=O)[C@H](CCCNC(=N)N)NC(=O)[C@@H](Cc2ccccc2Cl)NC(=O)[C@@H]2CCCN2C1=O` [Example 88, Ac-Arg-cyclo(Glu-Pro-D-Phe(2-Cl)-Arg-Trp-Orn)-NH2] were 5 nM, 3 nM, 15%, 0.35 nM and 89%.
For the compound `CC(=O)N[C@@H](CCCNC(=N)N)C(=O)N[C@H]1CC(=O)NCCCC[C@@H](C(N)=O)NC(=O)[C@H](Cc2c[nH]c3ccccc23)NC(=O)[C@H](CCCNC(=N)N)NC(=O)[C@@H](Cc2ccc(C#N)cc2)NC(=O)[C@H](CC(N)=O)NC1=O` [Example 89, Ac-Arg-cyclo(Asp-Asn-D-Phe(4-CN)-Arg-Trp-Lys)-NH2] (Ac-RDN[dPhe(4-CN)]RWK-NH2; lactam 2-7), the Ki in assay [1] is 48 nM. Also, the Emax amounted to 6% in assay [2] (setting [3]) and 87% in assay [2] (setting [4]).
